Results on 1 compound are retold here after article PMC7206119, “RIP1 inhibition blocks inflammatory diseases but not tumor growth or metastases” (Cell Death and Differentiation, 2019).

Common to all, as to assay: biochemical
What all share (set-up): DiscoverX kinase panel, active-site competition binding (KINOMEscan type), percent of control at one concentration
What all share (conditions): competition binding, percent of control

The target in assay [1] is T1, PIP5K2B (Homo sapiens, UniProt P78356).
T1 construct: gene PIP4K2B

For assay [2], the target named is CSNK1D (Homo sapiens, UniProt P48730).
Assay [3] has as its target T2, CDC2L2 (Homo sapiens, UniProt Q9UQ88).
T2 construct: gene CDK11A

The target in assay [4] is T3, TIE2 (Homo sapiens, UniProt Q02763).
T3 construct: gene TEK

Assay [5] has as its target CLK1 (Homo sapiens, UniProt P49759).
For assay [6], the target named is PDGFRA (Homo sapiens, UniProt P16234).
Assay [7] addresses T4, ASK2 (Homo sapiens, UniProt O95382).
T4 construct: gene MAP3K6

Assay [8] concerns the target GRK7 (Homo sapiens, UniProt Q8WTQ7).
The target in assay [9] is T5, TYK2(JH1domain-catalytic) (Homo sapiens, UniProt P29597).
T5 construct: JH1domain-catalytic

Assay [10] concerns the target EIF2AK1 (Homo sapiens, UniProt Q9BQI3).
Assay [11] has as its target PIK3CB (Homo sapiens, UniProt P42338).
For assay [12], the target named is T6, ABL1(H396P)-nonphosphorylated (Homo sapiens, UniProt P00519, H396P).
T6 construct: nonphosphorylated

Assay [13] concerns the target ROS1 (Homo sapiens, UniProt P08922).
For assay [14], the target named is T7, SgK110 (Homo sapiens, UniProt P0C264).
T7 construct: gene SBK3
T7 sequence (P0C264 whole entry): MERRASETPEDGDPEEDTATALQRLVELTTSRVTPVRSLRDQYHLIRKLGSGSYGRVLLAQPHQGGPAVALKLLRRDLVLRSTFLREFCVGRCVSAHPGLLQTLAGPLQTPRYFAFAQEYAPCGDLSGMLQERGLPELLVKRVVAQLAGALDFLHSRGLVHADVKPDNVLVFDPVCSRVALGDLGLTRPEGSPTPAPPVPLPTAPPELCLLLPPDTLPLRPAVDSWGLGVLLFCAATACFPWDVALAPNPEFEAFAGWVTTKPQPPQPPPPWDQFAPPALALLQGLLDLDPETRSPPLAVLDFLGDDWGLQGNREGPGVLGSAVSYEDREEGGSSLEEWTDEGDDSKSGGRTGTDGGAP

In assay [15] the target is NEK4 (Homo sapiens, UniProt P51957).
Sequence of NEK4 (P51957 whole entry): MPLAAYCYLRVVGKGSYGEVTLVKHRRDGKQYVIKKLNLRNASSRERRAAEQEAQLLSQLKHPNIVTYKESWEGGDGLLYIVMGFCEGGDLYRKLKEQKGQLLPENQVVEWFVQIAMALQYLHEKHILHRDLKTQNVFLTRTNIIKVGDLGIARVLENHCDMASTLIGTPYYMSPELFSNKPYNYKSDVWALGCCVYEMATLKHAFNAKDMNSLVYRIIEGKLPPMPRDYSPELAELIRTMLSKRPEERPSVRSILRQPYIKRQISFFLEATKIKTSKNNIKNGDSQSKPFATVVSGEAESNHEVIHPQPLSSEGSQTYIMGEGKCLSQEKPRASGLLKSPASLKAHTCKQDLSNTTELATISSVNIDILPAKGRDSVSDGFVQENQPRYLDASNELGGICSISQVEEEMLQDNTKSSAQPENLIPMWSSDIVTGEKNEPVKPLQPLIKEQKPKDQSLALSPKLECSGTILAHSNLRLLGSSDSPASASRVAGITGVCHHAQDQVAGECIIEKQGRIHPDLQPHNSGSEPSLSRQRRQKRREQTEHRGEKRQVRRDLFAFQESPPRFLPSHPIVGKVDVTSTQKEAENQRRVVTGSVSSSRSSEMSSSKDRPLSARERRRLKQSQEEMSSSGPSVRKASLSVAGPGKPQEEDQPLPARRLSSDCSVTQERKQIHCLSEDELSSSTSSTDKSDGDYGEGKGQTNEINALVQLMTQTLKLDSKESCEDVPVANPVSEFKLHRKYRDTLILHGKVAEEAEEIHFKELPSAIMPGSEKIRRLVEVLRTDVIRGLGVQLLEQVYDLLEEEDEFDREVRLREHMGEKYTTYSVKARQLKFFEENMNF
For assay [16], the target named is T8, AMPK-alpha1 (Homo sapiens, UniProt Q13131).
T8 construct: gene PRKAA1

Assay [17] deals with MYLK (Homo sapiens, UniProt Q15746).
Assay [18] addresses TSSK3 (Homo sapiens, UniProt Q96PN8).
Assay [19] addresses WNK2 (Homo sapiens, UniProt Q9Y3S1).
Assay [20] concerns the target ACVR1B (Homo sapiens, UniProt P36896).
The target in assay [21] is T9, ABL1(F317I)-nonphosphorylated (Homo sapiens, UniProt P00519, F317I).
T9 construct: nonphosphorylated

Sequence of WNK2 (Q9Y3S1 whole entry): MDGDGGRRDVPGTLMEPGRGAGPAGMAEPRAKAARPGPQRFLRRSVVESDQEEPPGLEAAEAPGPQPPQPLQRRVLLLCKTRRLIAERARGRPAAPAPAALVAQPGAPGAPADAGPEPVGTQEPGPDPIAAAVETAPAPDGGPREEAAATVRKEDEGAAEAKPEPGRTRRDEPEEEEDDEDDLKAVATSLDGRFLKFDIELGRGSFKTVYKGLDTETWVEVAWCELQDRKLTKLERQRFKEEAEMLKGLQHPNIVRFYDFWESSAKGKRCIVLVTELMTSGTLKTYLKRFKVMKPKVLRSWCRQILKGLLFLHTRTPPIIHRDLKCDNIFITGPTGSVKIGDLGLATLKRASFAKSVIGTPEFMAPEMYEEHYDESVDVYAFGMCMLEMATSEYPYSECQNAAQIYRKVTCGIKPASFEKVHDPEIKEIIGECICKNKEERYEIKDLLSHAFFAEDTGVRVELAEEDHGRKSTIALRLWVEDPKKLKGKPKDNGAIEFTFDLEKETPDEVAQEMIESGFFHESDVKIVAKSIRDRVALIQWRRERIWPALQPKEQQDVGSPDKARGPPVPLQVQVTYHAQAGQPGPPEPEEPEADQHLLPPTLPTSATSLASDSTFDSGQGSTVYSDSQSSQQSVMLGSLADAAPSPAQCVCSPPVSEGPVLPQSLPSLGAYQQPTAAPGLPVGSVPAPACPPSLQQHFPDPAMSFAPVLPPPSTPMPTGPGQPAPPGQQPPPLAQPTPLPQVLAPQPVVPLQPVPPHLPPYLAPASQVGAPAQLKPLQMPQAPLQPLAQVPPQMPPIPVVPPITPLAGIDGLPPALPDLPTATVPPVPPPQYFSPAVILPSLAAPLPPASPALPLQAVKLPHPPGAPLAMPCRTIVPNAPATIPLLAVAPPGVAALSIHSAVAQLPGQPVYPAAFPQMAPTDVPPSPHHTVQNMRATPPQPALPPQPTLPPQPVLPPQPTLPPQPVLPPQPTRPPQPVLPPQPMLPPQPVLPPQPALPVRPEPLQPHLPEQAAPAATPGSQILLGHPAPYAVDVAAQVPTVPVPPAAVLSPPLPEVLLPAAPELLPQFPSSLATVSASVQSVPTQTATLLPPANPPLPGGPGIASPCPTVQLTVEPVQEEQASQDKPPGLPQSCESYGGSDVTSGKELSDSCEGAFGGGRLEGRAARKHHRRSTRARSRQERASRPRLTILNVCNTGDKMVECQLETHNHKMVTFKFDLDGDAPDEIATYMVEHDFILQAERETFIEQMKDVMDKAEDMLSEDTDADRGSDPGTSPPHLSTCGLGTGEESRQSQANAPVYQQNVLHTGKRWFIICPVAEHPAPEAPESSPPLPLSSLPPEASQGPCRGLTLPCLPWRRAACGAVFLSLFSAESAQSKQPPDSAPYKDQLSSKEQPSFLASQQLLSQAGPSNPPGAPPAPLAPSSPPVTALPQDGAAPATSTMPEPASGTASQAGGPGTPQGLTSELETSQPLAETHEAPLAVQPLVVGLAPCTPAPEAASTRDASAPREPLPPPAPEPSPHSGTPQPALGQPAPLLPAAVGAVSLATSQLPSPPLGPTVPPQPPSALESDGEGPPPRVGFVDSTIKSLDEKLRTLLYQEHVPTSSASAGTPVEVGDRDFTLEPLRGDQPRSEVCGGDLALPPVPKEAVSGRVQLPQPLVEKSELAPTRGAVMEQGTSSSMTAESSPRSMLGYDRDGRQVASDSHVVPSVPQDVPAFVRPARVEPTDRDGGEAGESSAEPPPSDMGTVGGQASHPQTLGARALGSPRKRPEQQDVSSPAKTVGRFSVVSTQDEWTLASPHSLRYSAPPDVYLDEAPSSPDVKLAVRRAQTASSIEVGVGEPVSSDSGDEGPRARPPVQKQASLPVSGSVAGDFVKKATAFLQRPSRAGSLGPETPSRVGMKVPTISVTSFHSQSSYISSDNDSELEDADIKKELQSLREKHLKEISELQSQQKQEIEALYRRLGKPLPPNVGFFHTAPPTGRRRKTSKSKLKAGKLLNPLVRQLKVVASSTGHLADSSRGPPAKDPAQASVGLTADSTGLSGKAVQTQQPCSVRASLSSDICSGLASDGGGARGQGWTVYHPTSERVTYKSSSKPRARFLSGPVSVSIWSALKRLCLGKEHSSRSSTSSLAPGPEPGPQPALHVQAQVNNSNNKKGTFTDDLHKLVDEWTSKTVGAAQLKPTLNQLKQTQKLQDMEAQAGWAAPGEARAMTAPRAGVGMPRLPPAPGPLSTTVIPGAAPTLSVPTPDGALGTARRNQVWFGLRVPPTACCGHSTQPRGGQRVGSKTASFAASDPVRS
Sequence of TSSK3 (Q96PN8 whole entry): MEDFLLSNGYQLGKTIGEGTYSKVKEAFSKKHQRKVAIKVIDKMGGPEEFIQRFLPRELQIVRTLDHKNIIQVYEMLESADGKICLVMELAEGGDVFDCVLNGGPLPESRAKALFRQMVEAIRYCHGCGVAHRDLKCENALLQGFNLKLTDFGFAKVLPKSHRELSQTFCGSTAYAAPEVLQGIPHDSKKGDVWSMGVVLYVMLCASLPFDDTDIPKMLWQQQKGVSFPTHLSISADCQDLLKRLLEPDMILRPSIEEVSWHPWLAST
T4 sequence (O95382 whole entry): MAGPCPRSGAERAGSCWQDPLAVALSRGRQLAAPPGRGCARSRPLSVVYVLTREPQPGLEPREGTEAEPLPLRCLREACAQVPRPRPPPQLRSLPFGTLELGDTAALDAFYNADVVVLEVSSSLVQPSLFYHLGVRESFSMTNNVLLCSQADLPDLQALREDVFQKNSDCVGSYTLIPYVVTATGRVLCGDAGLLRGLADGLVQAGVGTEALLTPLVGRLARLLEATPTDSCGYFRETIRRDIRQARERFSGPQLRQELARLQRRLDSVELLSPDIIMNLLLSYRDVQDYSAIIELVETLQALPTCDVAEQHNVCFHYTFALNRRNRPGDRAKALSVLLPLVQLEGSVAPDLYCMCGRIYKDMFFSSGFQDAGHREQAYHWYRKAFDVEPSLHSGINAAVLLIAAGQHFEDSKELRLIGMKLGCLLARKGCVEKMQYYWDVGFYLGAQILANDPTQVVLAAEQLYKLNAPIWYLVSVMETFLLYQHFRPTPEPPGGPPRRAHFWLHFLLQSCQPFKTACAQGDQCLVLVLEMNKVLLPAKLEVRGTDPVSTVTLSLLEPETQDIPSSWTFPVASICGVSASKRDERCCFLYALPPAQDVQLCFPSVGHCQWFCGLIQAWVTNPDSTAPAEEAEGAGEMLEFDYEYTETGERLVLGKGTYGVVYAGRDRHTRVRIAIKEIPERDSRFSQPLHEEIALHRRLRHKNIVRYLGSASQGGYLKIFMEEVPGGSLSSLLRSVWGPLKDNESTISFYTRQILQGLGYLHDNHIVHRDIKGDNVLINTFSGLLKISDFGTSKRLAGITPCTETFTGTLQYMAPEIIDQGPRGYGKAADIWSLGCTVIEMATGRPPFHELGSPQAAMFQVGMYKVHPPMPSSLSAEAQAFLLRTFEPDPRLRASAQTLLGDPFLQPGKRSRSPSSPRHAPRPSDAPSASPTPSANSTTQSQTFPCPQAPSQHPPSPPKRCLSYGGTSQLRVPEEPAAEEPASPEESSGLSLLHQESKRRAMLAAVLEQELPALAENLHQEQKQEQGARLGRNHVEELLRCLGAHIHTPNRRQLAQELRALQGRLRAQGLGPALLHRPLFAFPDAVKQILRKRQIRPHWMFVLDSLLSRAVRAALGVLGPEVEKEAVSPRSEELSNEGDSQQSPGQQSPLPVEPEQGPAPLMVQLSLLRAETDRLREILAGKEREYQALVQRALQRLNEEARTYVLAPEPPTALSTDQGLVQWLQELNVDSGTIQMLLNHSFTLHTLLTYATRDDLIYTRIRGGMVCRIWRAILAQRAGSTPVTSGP

Consider `COc1cc2c(cn1)N(C)C(=O)[C@@H](NC(=O)c1nc3n(n1)[C@H](c1ccccc1)CC3)CC2` [GNE684, (S)-N-((S)-7-methoxy-1-methyl-2-oxo-2,3,4,5-tetrahydro-1H-pyrido[3,4-b]azepin-3-yl)-5-phenyl-6,7-dihydro-5H-pyrrolo[1,2-b][1,2,4]triazole-2-carboxamide], for which the remaining binding at 10 µM in assay [1] was found to be 92%; in assay [2], 100%; in [3], 98%; in assay [4] it was 92%; in assay [5], 90%; in assay [6], 100%. Further, the remaining binding at 10 µM in assay [7] was 98%; in assay [8] it was 100%; in assay [9], 100%; in [10], 100%; in assay [11], 100%; in assay [12], 69%. Also, the remaining binding at 10 µM in assay [13] was 96%; in assay [14], 67%; in assay [15] it was 100%; in [16], 97%; in assay [17], 99%; in assay [18] it was 96%. Moreover, the remaining binding at 10 µM in [19] is 83%; in assay [20], 93%; in assay [21] it was 97%.
